Test results: patent US7744927B2, “Methods of promoting hematopoietic and mesenchymal cell proliferation and differentiation” (University of Southern California, priority 1997, dated 2010)
Non-standard residues stand in square brackets, D forms with d. No end group written: not given here. Phe(4-NH2) = Nc1ccc(C[C@H](N)C(=O)O)cc1

What was measured:
[1] = tested on: Rat Peritoneal Macrophages; assay: Phagocytosis of opsonized yeast by rat peritoneal macrophages; type: cell-based, Sprague Dawley rats
Procedure: Resident peritoneal macrophages have very little phagocytic activity. Exposure of macrophages to inflammatory or activating agents will increase this macrophage function. Resident peritoneal macrophages were harvested from C57B1/6 mice or Sprague Dawley rats and resuspended at a concentration of 1×10^6 cells/ml in phosphate buffered saline (PBS). Five separate 0.5 ml cell aliquots were placed on a glass coverslip in a 35 mm petri dish. Prior to incubation, either 0.5 ml of PBS, AII, or AII analogues or fragments at between 1-1000 ug/ml final concentration was added to the individual cover slips. The dishes containing the cover slips were then incubated at 37° C. for 4 hours, after which the cover slips were washed 3 to 6 times with PBS. Opsonized yeast particles (Sigma Chemical Co.) (yeast opsonized with adult serum from the same species as that under study) were added to the cover slips and incubated for 2 hours, after which the cover slips were again washed with PBS and inverted onto a glass slide. The number of macrophages that ingested yeast and the number of yeast per macrophage ingested was then determined microscopically. At least 100 macrophages per coverslip were counted. The data from this study are summarized in Tables 3 and 4 and FIGS. 1 and 2.

[2] = tested on: human peripheral blood mononuclear cells (PBMC); assay: Respiratory burst (hydrogen peroxide generation), human PBMC; type: cell-based; settings: alone and in response to PMA 10 ng/ml; 4 hours exposure
Procedure: The respiratory burst of leukocytes (macrophages and polymorphonuclear neutrophils) is one component of the mediator system used to kill bacteria. As with phagocytosis, the level of this respiratory burst activity in resident macrophages is low. […] Studies were conducted to assess the effect of in vitro exposure of murine or rat peritoneal macrophages and human peripheral blood mononuclear cells (PBMC) to various concentrations of AII on the capacity to generate hydrogen peroxide via the respiratory burst system. For the human studies, five different donors were examined.
The murine or rat peritoneal cells were harvested by lavage with 5-15 ml of cold PBS with 0.5% bovine serum albumin. The human PBMC were harvested by venipuncture from normal human volunteers and isolated from peripheral blood by Ficoll Hypaque density centrifugation. After isolation, the cells were resuspended at 1×10^6 cells/ml and placed at 100 μl per well into 96 well plates. The cells were incubated with various concentrations of AII or AII analogues for 4 hours at 37° C. The cells were then preloaded with a fluorescent probe for hydrogen peroxide, 2,7 dichlorofluorescein acetate, which is nonfluorescent in the absence of hydrogen peroxide. Fifteen minutes later, 10 ng/ml of phorbol myristate acetate (+PMA) or PBS (−PMA) was added to stimulate the production of hydrogen peroxide. One hour after stimulation the level of fluorescence produced was measured on a Cytofluor 2350 multiwell fluorometer.

[3] = tested on: AT2 receptor; settings: experimental models tested; cited from earlier work
[4] = Test of AII fragments for effectiveness (method not described)

Substance | #/Cell ([1]; peptide 100 μg/ml) | % w/Yeast ([1]; peptide 100 μg/ml) | Number of Macrophages with Yeast (Yeast Number) 0 ([1]; peptide 100 μg/ml) | Number of Macrophages with Yeast (Yeast Number) 1-3 ([1]; peptide 100 μg/ml) | Number of Macrophages with Yeast (Yeast Number) 4-6 ([1]; peptide 100 μg/ml) | #/Cell ([1]; peptide 1000 μg/ml) | % w/Yeast ([1]; peptide 1000 μg/ml) | Number of Macrophages with Yeast (Yeast Number) 1-3 ([1]; peptide 1000 μg/ml) | Number of Macrophages with Yeast (Yeast Number) 4-6 ([1]; peptide 1000 μg/ml) | ability to generate hydrogen peroxide (respiratory burst) [2] | binding characteristics [3] | effectiveness [4]
RVYAHPF [GSD 22A] | 0.59 | 23.7% | 100 | 26 | 5 | 0.40 | 18.7% | 22 | 1 | an increase in the respiratory burst capacity was observed | – | –
Asp-Arg-Val-Tyr-Ile-His-Pro (DRVYIHP) [AII(1-7)] | – | – | – | – | – | – | – | – | – | an increase in the respiratory burst capacity was observed | – | –
Asp-Arg-Val-Tyr-Ile-Xaa-Pro-Phe (DRVYI[Phe(4-NH2)]PF) [(p-NH2-Phe)6-AII] | – | – | – | – | – | – | – | – | – | – | comparable to AT2 antagonists | –
His-Pro-Phe (HPF) [AII(6-8)] | – | – | – | – | – | – | – | – | – | – | – | found not to be effective
DRVYIHPI [GSD 28] | 0.02 | 1.0% | 100 | 1 | 0 | – | – | – | – | an increase in the respiratory burst capacity was observed | – | –
Tyr-Ile-His-Pro-Phe (YIHPF; printed: Tyr-Ile-His-Pro-Phe) [AII(4-8)] | – | – | – | – | – | – | – | – | – | – | – | found not to be effective
DRPYIHPF [GSD 24B] | 0.58 | 23.1% | 100 | 25 | 5 | 0.18 | 9.1% | 10 | 0 | an increase in the respiratory burst capacity was observed | – | –
